How the values were obtained:
[1] = system: TuBEC (tumor-associated brain endothelial cells); assay type: cell-based; conditions: seven days; for TuBEC cell death, agent alone: TMZ 300 μM, CPT-11 100 μM, Eto 50 μM, EGCG 20 μM
Description: Cell death ELISA. EC were treated with etoposide (Calbiochem; La Jolla, Calif.), temozolomide (TMZ) (Schering-Plough; Kenilworth, N.J.), CPT-11 (Pharmacia; New York, N.Y.), the caspase inhibitor Q-VDOPH (Calbiochem), or EGCG (Sigma-Aldrich, St. Louis, Mo.), then assayed using the Cell Death Detection ELISA Plus kit (Roche Diagnostics; Indianapolis, Ind.) according to manufacturer's protocol. Percent death was calculated based on 100% positive cell death control.
Lentiviral construct. The sequences of siRNA, the isolation of human Grp78 cDNA and their subcloning into lentiviral constructs are previously described (Dong et al, Cancer Res., 65:5785-91, 2005). The sequences of the siRNA against human GRP78 are: siGRP78A: 5′-[…]-3′ (SEQ ID NO:1) and siGRP78B: 5′-[…]-3′ (SEQ ID NO:2). The sequences of the control siRNA are: sicontrol A: 5′-[…]-3′ (SEQ ID NO:3); sicontrol B: 5′-[…]-3′ (SEQ ID NO:4). For construction of lentivirus expressing GRP78, full length human GRP78 was prepared by reverse transcription of total HEK293T RNA followed by a 2-step PCR amplification and subcloning into the BamHI/XhoI sites of pcDNA3 (Invitrogen; Carlsbad, Calif.) to yield pcDNA3-hGRP78. Non-replicating lentiviral vectors co-expressing bicistronic human GRP78 and EGFP linked via the EMCV IRES were produced using the pLenti6/V5-D-TOPO and VIRAPOWER™ Lentivirus Expression system (Invitrogen, Carlsbad, Calif.). Initially, EGFP (Clonetech; Mountain View, Calif.) was inserted into the CMV driven expression cassette by TOPO cloning. […] The human GRP78 gene digested from pcDNA3-hGRP78 using XbaI and XhoI was ligated into pLenti6/EGFP between the CMV promoter and the EGFP gene. Next, an insert encoding the EMCV IRES, was generated by PCR from pIRES-EGFP (Clonetech) and subcloned into the XhoI/AgeI sites of pLenti6/huGRP78 EGFP. The IRES sequence was inserted between the human GRP78 gene and the EGFP allowing hGRP78 expression to be monitored by EGFP fluorescence. The manufacturer's manual was followed for TOPO cloning and production of viral particles. For infection, 10^4 cells were plated in 6-well dishes and infected with lentivirus at titers of 5×10^6 units/ml (TU/ml). Infected cells, monitored for GFP, were used when cultures were 100% GFP positive.
To test whether GRP78 confers drug resistance to TuBEC, TuBEC cultures were infected with lentivirus expressing siGRP78A and siCtr1A. Five days post infection, cultures were left untreated (media), or treated with CPT-11 [100 μM], etoposide (Eto) [50 μM] or temozolomide (MZ) [300 μM]. After treatment for seven days, the cells were analyzed for cytotoxicity.
To target GRP78 through a small molecule approach, TuBEC were incubated with EGCG alone or in combination with TMZ, CPT-11, and Eto. Cytotoxicity was measured after seven days (FIG. 3D).

[2] = system: BEC (normal human brain endothelial cells); experiment: MTT cell viability assay, BEC; assay type: cell-based; conditions: 50 μM etoposide, 72 hours, vs DMSO vehicle
Description: (§1) Cell Culture. Endothelial cells (EC) were isolated from normal human brain tissue or human glioma tissue as previously described (Charalambous et al, J. Neurosurg., 102:699-705, 2005; Charalambous et al, Exp Cell Res., 313:1192-202, 2007). All experiments were performed on subconfluent (60-80%) cultures, in passages 4 to 6 only.
(§2) MTT cell viability assay. Cells were plated in triplicate (3×10^3 cells/well; […]) into 96-well plates coated with 1% gelatin. The 3-(4,5-dimethylthiazol-2-yl)-2,5-diphenyltetrazolium bromide (MTT) assay was performed according to the manufacturer's instructions (Sigma-Aldrich, St. Louis, Mo.). Percent cell viability was calculated relative to vehicle-treated controls.
(§3) To compare the sensitivities of TuBEC and BEC to chemotherapeutic agents, cells were treated with the topoisomerase II inhibitor, etoposide [1-50 μM] or DMSO (vehicle) [0.1%] for 72 hours, and cytoxicity was assessed using the MTT assay, which was performed according to manufacturer's protocol (Sigma Aldrich; St. Louis, Mo.).

[3] = system: TuBEC (tumor-associated brain endothelial cells); experiment: MTT cell viability assay, TuBEC; assay type: cell-based, human; conditions: 50 μM etoposide, 72 hours, vs DMSO vehicle
Description: as §1, §2, §3

CCc1c2c(nc3ccc(OC(=O)N4CCC(N5CCCCC5)CC4)cc13)-c1cc3c(c(=O)n1C2)COC(=O)[C@]3(O)CC [CPT-11]
TuBEC cell death, agent alone [1]: did not cause TuBEC cell death

CC(C)[C@H](NC(=O)c1ccc2ccccc2n1)C(=O)N[C@@H](CC(=O)O)C(=O)COc1c(F)cccc1F [Q-VDOPH]
effect of caspase inhibition on cell death induced by CPT-11, Eto or TMZ with reduced GRP78 ([1]; Q-VDOPH [10 mM], TuBEC infected with siGRP78B): blocked cell death

(−)-epigallocatechin gallate [EGCG]
cell death, EGCG in combination with CPT-11 ([1]; EGCG 20 μM + CPT-11 100 μM, p=0.005): 46% | cell death, EGCG in combination with Eto ([1]; EGCG 20 μM + Eto 50 μM, p=0.001): 49% | cell death, EGCG in combination with TMZ ([1]; EGCG 20 μM + TMZ 300 μM, p=0.003): 35% | TuBEC cell death, agent alone [1]: did not cause TuBEC cell death

COc1cc([C@@H]2c3cc4c(cc3[C@@H](O[C@@H]3O[C@@H]5CO[C@@H](C)O[C@H]5[C@H](O)[C@H]3O)[C@H]3COC(=O)[C@H]23)OCO4)cc(OC)c1O [etoposide]
BEC died (cytotoxicity, MTT assay) [2]: over 60% | cell death of TuBEC (cytotoxicity, MTT assay) [3]: no significant cell death | TuBEC cell death, agent alone [1]: did not cause TuBEC cell death
